# Test results: PubChem BioAssay AID1420 (Emory University Molecular Libraries Screening Center, 2008)
# Active and inactive are the calls of the source. How the calls were made is not given here.
# Biological target: Calpain-2 catalytic subunit (Sus scrofa) (UniProt P43367)
# Assay: pig calpain II inhibitor potency, dose response, biochemical, fluorogenic peptide substrate (AID 1420)
# Settings: purified calpain II, 30 min
# Sequence of Calpain-2 catalytic subunit (Sus scrofa) (P43367 whole entry, looked up): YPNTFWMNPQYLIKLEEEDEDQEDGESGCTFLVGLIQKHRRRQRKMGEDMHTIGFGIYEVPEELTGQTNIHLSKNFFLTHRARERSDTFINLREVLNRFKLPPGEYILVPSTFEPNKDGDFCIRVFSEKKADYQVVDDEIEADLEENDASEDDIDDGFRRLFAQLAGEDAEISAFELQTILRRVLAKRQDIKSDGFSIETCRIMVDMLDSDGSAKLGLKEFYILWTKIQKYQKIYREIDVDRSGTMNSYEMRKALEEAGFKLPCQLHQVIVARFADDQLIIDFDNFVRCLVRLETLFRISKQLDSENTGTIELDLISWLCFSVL
smiles,measurement,value
CC(C)(C)C1CCC(=NNc2ccc(S(N)(=O)=O)cc2[N+](=O)[O-])CC1 (stereo unspecified),IC50,inactive
